Read-outs that look alike come from different tables or passages of the source. Where a SMILES comes first, the peptide text is derived from it. The star is where a group is joined. Cbz = O=C(OCc1ccccc1)*; CHN2 = [N-]=[N+]=C*; tBu = CC(C)(C)*
Legend:
[1] = test system: serotype I FIPV black strain; test: Infection of AK-D cells by a serotype I FCoV, immunofluorescence; assay type: cell-based, Feline infectious peritonitis virus; conditions: AK-D cells pretreated with 10 uM inhibitor
Method: AK-D cells were pretreated with either 10 uM cathepsin B inhibitor CA074-Me (CatB-I), 10 uM cathepsin L inhibitor Z-FY(tBu)-DMK (CatL-I), or 10 mM NH4Cl, and then infected with virus the serotype I FIPV black strain. Immunofluorescence was performed essentially as described for FIG. 4.
AK-D cells were pretreated with either 10 uM cathepsin B inhibitor CA074-Me (CatB-I), 10 uM cathepsin L inhibitor Z-FY(tBu)-DMK (CatL-I), or 10 mM NH4Cl, and then infected with virus FIPV black strain, a serotype I FIPV. Immunofluorescence was performed essentially as described for FIG. 4.

FIPV-1146 [2] = assay type: cell-based, Feline infectious peritonitis virus; conditions: for infection by FIPV-1146 (entry), inhibitor pre-incubation: five log dilutions of inhibitor 60 min pre-infection
FIPV-DF2 [3] = test: Infection of primary feline blood monocytes by immunofluorescence; assay type: cell-based, Feline infectious peritonitis virus; conditions: monocytes pretreated with 10 μM inhibitor; 12 h post-infection
cathepsin B [4] = biological target: cathepsin B (Homo sapiens, UniProt P07858); conditions: kinact/Ki (k2/Ki); cited from earlier work
FIPV-1146 [5] = test: Growth assay: production of extracellular virus by TCID50, A-72 cells; assay type: cell-based, Feline infectious peritonitis virus; conditions: A-72 cells pretreated with 10 μM inhibitor; media collected 9 h post-infection; vs DMSO control
FECV-1683 [6] = test: Infection (entry) assay by immunofluorescence, A-72 cells; assay type: cell-based, feline enteric coronavirus; conditions: for infection by FECV-1683 (entry), inhibitor pre-incubation: five log dilutions of inhibitor 60 min pre-infection; for infection by FECV-1683 (entry), inhibitor pre-incubation / infection by FECV-1683, inhibitor treatment after entry: fixed 6 h post-infection; for infection by FECV-1683, inhibitor treatment after entry: inhibitor 60 min post-infection
cathepsin B [7] = biological target: T1, cathepsin B (Mus musculus, UniProt P10605); conditions: 10 mg/kg; cited from earlier work
T1 construct: host or cells: mouse (in vivo)
T1 sequence (P10605 80-333): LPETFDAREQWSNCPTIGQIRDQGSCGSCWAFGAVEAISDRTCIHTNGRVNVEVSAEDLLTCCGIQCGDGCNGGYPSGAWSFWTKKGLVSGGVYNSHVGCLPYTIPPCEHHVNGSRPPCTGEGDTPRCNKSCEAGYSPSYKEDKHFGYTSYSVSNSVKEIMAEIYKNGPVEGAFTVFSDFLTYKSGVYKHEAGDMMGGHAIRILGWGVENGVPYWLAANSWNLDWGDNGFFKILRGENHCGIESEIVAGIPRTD

influenza virus [8] = assay type: cell-based; conditions: for influenza virus entry, cathepsin inhibitor treatment: anti-influenza nucleoprotein mAb H19
cathepsin L = cathepsin L (Homo sapiens, UniProt P07711); conditions: kinact/Ki (k2/Ki); cited from earlier work
cathepsin L, sequence (P07711 114-333, species assumed): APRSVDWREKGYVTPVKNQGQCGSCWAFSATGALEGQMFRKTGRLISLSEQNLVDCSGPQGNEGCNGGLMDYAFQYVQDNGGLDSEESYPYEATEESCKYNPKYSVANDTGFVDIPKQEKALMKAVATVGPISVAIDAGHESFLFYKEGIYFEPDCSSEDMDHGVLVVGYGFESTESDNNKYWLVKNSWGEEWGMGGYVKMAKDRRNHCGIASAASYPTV

FECV-1683 [9] = test: Growth assay: production of extracellular virus by TCID50, A-72 cells; assay type: cell-based, feline enteric coronavirus; conditions: A-72 cells pretreated with 10 μM inhibitor; media collected 9 h post-infection; vs DMSO control
FIPV-DF2 [10] = test: Infection of feline cell lines CRFK, AK-D, Fc2Lu by immunofluorescence; assay type: cell-based, Feline infectious peritonitis virus
FIPV-1146 [11] = test: Infection of primary feline blood monocytes by immunofluorescence; assay type: cell-based, Feline infectious peritonitis virus; conditions: monocytes pretreated with 10 μM inhibitor; 12 h post-infection
FECV-1683 [12] = test: Infection of feline cell lines CRFK, AK-D, Fc2Lu by immunofluorescence; assay type: cell-based, feline enteric coronavirus; conditions: Fc2Lu cells, pretreated with 10 uM inhibitor or 10 mM NH4Cl, 6 h post-infection
FIPV-1146 [13] = test: as above; assay type: cell-based, Feline infectious peritonitis virus
influenza virus [14] = assay type: cell-based; conditions: A-72 cells pretreated with inhibitor; control virus
Sendai virus = assay type: cell-based
human coronaviruses = conditions: cited from earlier work
FIPV = conditions: cited from earlier work
murine coronavirus (A59) = conditions: cited from earlier work
[15] = A-72 cells, fixed 6 h post-infection
[16] = CRFK, AK-D, Fc2Lu cells, pretreated with 10 uM inhibitor or 10 mM NH4Cl, 6 h post-infection
[17] = A-72 cells, post-treatment at the concentrations shown in FIG. 3
[18] = A-72 cells, 1 h post-infection, concentrations shown in FIG. 3
[19] = A-72 cells, pretreatment with 50 nM bafilomycin A1

CCCNC(=O)[C@H]1O[C@@H]1C(=O)N[C@H](C(=O)N1CCC[C@H]1C(=O)OC)[C@@H](C)CC (relative stereo) [CA074-Me, [L-3-trans-(Propylcarbamoyl)oxirane-2-carbonyl]-L-isoleucyl-L-proline Methyl Ester]
replication of the serotype I FIPV strain [1]: can inhibit replication | infection by FIPV-1146 (entry), inhibitor pre-incubation (FIPV-1146 [2]; [15]): almost completely blocked infection | infection by FIPV-1146, inhibitor treatment after entry (FIPV-1146 [2]; A-72 cells, inhibitor 60 min post-infection, fixed 6 h post-infection): no effect | inhibition of infection by FIPV-DF2 of primary feline blood monocytes (FIPV-DF2 [3]): 85-95% | apparent second order rate constant for cathepsin B (cathepsin B [4]): 201 M⁻¹ s⁻¹ | production of FIPV-1146 viral particles (extracellular virus, TCID50) (FIPV-1146 [5]): considerably limited the production | infection by FECV-1683 (entry), inhibitor pre-incubation (FECV-1683 [6]; A-72 cells): potently blocked infection | infection by FECV-1683, inhibitor treatment after entry (FECV-1683 [6]; A-72 cells): no effect | inhibition of cathepsin B in a mouse (cathepsin B [7]): inhibit cathepsin B | influenza virus entry, cathepsin inhibitor treatment (influenza virus [8]; A-72 cells, […]): Neither the cathepsin B nor the cathepsin L inhibitor had an effect | apparent second order rate constant for cathepsin L (cathepsin L): 85 M⁻¹ s⁻¹ | production of FECV-1683 viral particles (extracellular virus, TCID50) (FECV-1683 [9]): considerably limited the production | infection by FIPV-DF2 of feline cell lines (FIPV-DF2 [10]; [16]): almost completely prevented infection | inhibition of infection by FIPV-1146 of primary feline blood monocytes (FIPV-1146 [11]): 85-95% | infection by FECV-1683 of feline cell lines (FECV-1683 [12]): almost completely prevented infection | infection by FIPV-1146 of feline cell lines (FIPV-1146 [13]; [16]): almost completely prevented infection

CC(C)C[C@H](NC(=O)OCc1ccccc1)C(=O)NNC(=O)NNC(=O)[C@H](CC(C)C)NC(=O)[C@H](Cc1ccccc1)NC(=O)OC(C)(C)C [Boc1, 1-(N-Benzyloxycarbonyl-leucyl)-5-(N-Boc-phenylalanyl-leucyl)carbohydrazide]
infection by FIPV-1146 (entry), inhibitor pre-incubation (FIPV-1146 [2]; [15]): no effect | production of FIPV-1146 viral particles (extracellular virus, TCID50) (FIPV-1146 [5]): no significant effect | infection by FECV-1683 (entry), inhibitor pre-incubation (FECV-1683 [6]; A-72 cells): no effect | influenza virus entry, cathepsin inhibitor treatment (influenza virus [8]; [15]): no effect | production of FECV-1683 viral particles (extracellular virus, TCID50) (FECV-1683 [9]): no significant effect

CCOC(=O)[C@H]1O[C@@H]1C(=O)N[C@@H](CC(C)C)C(=O)NCCC(C)C [E-64d, (2S,3S)-trans-Epoxysuccinyl-L-leucylamido-3-methylbutane ethyl ester]
production of FIPV-1146 viral particles (extracellular virus, TCID50) (FIPV-1146 [5]): significantly reduced | production of FECV-1683 viral particles (extracellular virus, TCID50) (FECV-1683 [9]): significantly reduced | effect on influenza virus infection (influenza virus [14]): no effect

Cl.N [NH4Cl]
Sendai virus entry (Sendai virus): no reduction in entry | FIPV-1146 entry (FIPV-1146 [2]): only partially blocked | FIPV-1146 infection, lysosomotropic agent treatment after entry (FIPV-1146 [2]): minimal effect | FIPV-1146 infectivity, treatment after entry at higher concentrations (FIPV-1146 [2]): significantly reduce infectivity | inhibition of entry of FIPV-1146 (FIPV-1146 [2]): approximately 20% | FECV-1683 infection, lysosomotropic agent treatment after entry (FECV-1683 [6]): minimal effect | FECV-1683 infectivity, treatment after entry at higher concentrations (FECV-1683 [6]): significantly reduce infectivity | entry by FECV-1683 (FECV-1683 [6]): almost completely blocked entry | influenza virus entry (influenza virus [8]): completely inhibited | infection by FIPV-DF2 of feline cell lines (FIPV-DF2 [10]): only a marginal effect | infection by FECV-1683 of feline cell lines (FECV-1683 [12]): selectively inhibited | infection by FIPV-1146 of feline cell lines (FIPV-1146 [13]): only a marginal effect

CC(C)(C)Oc1ccc(C[C@H](NC(=O)[C@H](Cc2ccccc2)NC(=O)OCc2ccccc2)C(=O)C=[N+]=[N-])cc1 [Z-FY-(tBu)-DMK, Z-Phe-Tyr(t-Bu)-diazomethylketone] (Cbz-Phe-Tyr(tBu)-CHN2)
infection by FIPV-1146 (entry), inhibitor pre-incubation (FIPV-1146 [2]; [15]): no effect on FIPV-1146 entry, except for some limited effect at the highest concentration tested | effect on FIPV-DF2 infection of primary feline monocytes (in words) (FIPV-DF2 [3]): no significant effect | production of FIPV-1146 viral particles (extracellular virus, TCID50) (FIPV-1146 [5]): only a negligible effect | infection by FECV-1683 (entry), inhibitor pre-incubation (FECV-1683 [6]; A-72 cells): potently blocked infection | infection by FECV-1683, inhibitor treatment after entry (FECV-1683 [6]; A-72 cells): no effect | influenza virus entry, cathepsin inhibitor treatment (influenza virus [8]; A-72 cells, […]): Neither the cathepsin B nor the cathepsin L inhibitor had an effect | production of FECV-1683 viral particles (extracellular virus, TCID50) (FECV-1683 [9]): greatly diminished the propagation | infection by FIPV-DF2 of feline cell lines (FIPV-DF2 [10]; [16]): little or no effect | effect on FIPV-1146 infection of primary feline monocytes (in words) (FIPV-1146 [11]): no significant effect | infection by FECV-1683 of feline cell lines (FECV-1683 [12]): selectively inhibited | infection by FIPV-1146 of feline cell lines (FIPV-1146 [13]; [16]): little or no effect

CO/C1=C\C(C)=C\[C@@H](C)[C@@H](O)[C@@H](C)C/C(C)=C/C=C/[C@H](OC)[C@@H]([C@@H](C)[C@@H](O)[C@H](C)[C@@]2(O)C[C@@H](O)[C@H](C)[C@@H](C(C)C)O2)OC1=O [bafilomycin A1]
Sendai virus entry (Sendai virus; A-72 cells, bafilomycin A1 at the concentrations tested): unaffected | Sendai virus infection, post-treatment (Sendai virus; [17]): no effect | FIPV-1146 infectivity, treatment after entry at higher concentrations (FIPV-1146 [2]): significantly reduce infectivity | FIPV-1146 infection, lysosomotropic agent treatment after entry (FIPV-1146 [2]; [18]): minimal effect | inhibition of entry by FIPV-1146 (FIPV-1146 [2]; [19]): approximately 40% | FECV-1683 infectivity, treatment after entry at higher concentrations (FECV-1683 [6]): significantly reduce infectivity | FECV-1683 infection, lysosomotropic agent treatment after entry (FECV-1683 [6]; [18]): minimal effect | entry of FECV-1683 (FECV-1683 [6]; [19]): completely blocked entry | influenza virus infection, post-treatment (influenza virus [8]; [17]): no effect | entry of influenza virus (influenza virus [8]; [19]): completely blocked entry

CC(=O)N[C@@H](CC(C)C)C(=O)N[C@@H](CC(C)C)C(=O)N[C@H](C=O)CCCNC(=N)N [leupeptin]
replication of human coronavirus (human coronaviruses): inhibits | inhibition of FIPV (FIPV): does not strongly inhibit | replication of murine coronavirus A59 (murine coronavirus (A59)): does not strongly inhibit

B1: cystatin C: a potent inhibitor of cathepsin B (protein, UniProt P01034 27-146, looked up)
Cystatin-C: SSPGKPPRLVGGPMDASVEEEGVRRALDFAVGEYNKASNDMYHSRALQVVRARKQIVAGVNYFLDVELGRTTCTKTQPNLDNCPFHDQPHLKRKAFCSFQIYAVPWQGTMTLSKSTCQDA
replication of human coronavirus (human coronaviruses): inhibited replication | replication of murine coronavirus A59 (murine coronavirus (A59)): lack of inhibition

— patent publication US9044486B2, “Method for prophylaxis or treatment of feline infectious peritonitis” (Cornell University, priority 2008, dated 2015)
